Where “and” joins values, the source holds several entries; their conditions need not be identical. Equal entries are not always repeated.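 Following 48 hours of exposure in 96-well plates, responses at five concentrations were used to interpolate endpoints linearly. GI50 marks 50% less growth. TGI marks complete inhibition of growth.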
Columns and labels:
Test in all cases: DTP human tumour cell line panel, 48 h
DLD-1 colon = tested on: DLD-1 colon
DMS 114 small cell lung = tested on: DMS 114 small cell lung
HOP-18 NSCLC = tested on: HOP-18 NSCLC
LXFL 529 NSCLC = tested on: LXFL 529 NSCLC
M19-MEL melanoma = tested on: M19-MEL melanoma
DU-145 prostate = tested on: DU-145 prostate
MDA-MB-231 breast = tested on: MDA-MB-231 breast
MDA-MB-435 = tested on: MDA-MB-435
PC-3 prostate = tested on: PC-3 prostate
HS 578T breast = tested on: HS 578T breast

| SMILES | TGI (DLD-1 colon) | TGI (DMS 114 small cell lung) | TGI (HOP-18 NSCLC) [µM] | TGI (LXFL 529 NSCLC) | TGI (M19-MEL melanoma) | GI50 (DLD-1 colon) | GI50 (HOP-18 NSCLC) | TGI (DU-145 prostate) [µM] | TGI (MDA-MB-231 breast) [µM] | TGI (MDA-MB-435) [µM] | TGI (PC-3 prostate) [µM] | GI50 (DMS 114 small cell lung) | GI50 (LXFL 529 NSCLC) [µM] | GI50 (M19-MEL melanoma) [µM] | TGI (HS 578T breast) [µM] |
| --- | --- | --- | --- | --- | --- | --- | --- | --- | --- | --- | --- | --- | --- | --- | --- |
| CC(=O)O/N=C/c1ncccc1CO | > 100 µM | > 100 µM | > 100 | > 100 µM | > 100 µM | – | – | – | – | – | – | – | – | – | – |
| N#CC(C#N)=C(N)/C(C#N)=C\c1ccnc2ccccc12 | 27.5 µM | 38.8 µM | > 100 | 54.3 µM | 40.8 µM | – | – | – | – | – | – | – | – | – | – |
| O=C1C(Br)=C[C@H]2C3C=CC(Br)(C3=O)[C@@H]12 (some centres undefined) | 20.5 µM | 28.3 µM | > 100 | 21.8 µM | 24.8 µM | – | – | – | – | – | – | – | – | – | – |
| COc1ccc(-c2c(C3=NCCN3)nnn2-c2ccccc2)cc1 | > 100 µM | > 100 µM | > 100 | > 100 µM | > 100 µM | – | – | – | – | – | – | – | – | – | – |
| C=CCCCCCCCCCCCC1CCC(CC)N1 (centres undefined) | 15.5 µM | 14.7 µM | 25.2 | 26 µM | 16.2 µM | – | – | – | – | – | – | – | – | – | – |
| CC(C)=CC(C(O)c1ccccc1)S(=O)(=O)c1nccn1C (centres undefined) | > 100 µM | > 100 µM | > 100 | > 100 µM | > 100 µM | – | – | – | – | – | – | – | – | – | – |
| CC(=O)NC(CCCCNC(=O)OCc1ccccc1)C(=O)NCc1ccccc1 (centres undefined) | > 100 µM | > 100 µM | – | > 100 µM | > 100 µM | – | – | – | – | – | – | – | – | – | – |
| CCN(CC)CCn1c2c3ccccc3ccc2c2oc(=O)c3ccccc3c21 | > 100 µM | > 100 µM | > 100 | > 100 µM | > 100 µM | – | – | – | – | – | – | – | – | – | – |
| COc1ccc(NC(=O)C2C(=O)N(c3ccc(OC)cc3)C(=O)/C2=N/O)cc1 (centres undefined) | > 100 µM | > 100 µM | 44.4 | > 75 µM | 61.1 µM | – | – | – | – | – | – | – | – | – | – |
| CC(=O)OCC1OC(n2c(-c3ccccc3)cc(-c3ccco3)c(C#N)c2=O)C(OC(C)=O)C(OC(C)=O)C1OC(C)=O (centres undefined) | > 100 µM | > 100 µM | 78.1 | > 100 µM | > 100 µM | > 53.1 µM and 25.8 µM | 28.2 µM | – | – | – | – | – | – | – | – |
| c1cnc2c(c1)-n1cccc1C1(CCSCC1)NN2 | – | – | > 100 | – | > 100 µM | – | – | – | – | – | – | – | – | – | – |
| Cc1nc2ccc(C(F)(F)F)cc2nc1Nc1ccc(Cl)c(Cl)c1 | – | – | 29.5 | 20.6 µM | 24.4 µM | – | – | – | – | – | – | – | – | – | – |
| CC1CC(c2ccccc2)=Nc2ccccc2S1(=O)=O (centres undefined) | 28.4 µM | 45.8 µM | 30 | 28.6 µM | 30.5 µM | – | – | – | – | – | – | – | – | – | – |
| COC(=O)c1c(-c2ccccc2)cc2c3cc(-c4ccccc4)c(C(=O)OC)n3c3ccccc3n12 | > 100 µM | > 100 µM | > 100 | > 100 µM | > 100 µM | – | – | – | – | – | – | – | – | – | – |
| O=[N+]([O-])c1c(/C=N/Nc2ccccc2)oc(-c2ccc3c(c2)OCO3)c1-c1ccc2c(c1)OCO2 | > 100 µM | > 100 µM | – | > 100 µM | > 100 µM | – | – | – | – | – | – | – | – | – | – |
| CCN(CC)c1ccc(N=Nc2ccc(-c3nc4cccnc4o3)cc2)cc1 | > 100 µM | > 100 µM | – | > 100 µM | > 100 µM | – | – | – | – | – | – | – | – | – | – |
| O=C1C=C(c2c(O)ccc3ccccc23)c2ccccc2C1=O | 16.4 µM | 6.71 µM | 23.3 | 2.96 µM | 8.81 µM | – | – | 24 | 8.79 | 5.86 | 4.2 | – | – | – | – |
| O=c1cc(-c2ccccc2)[nH]c2cc(Cl)cc(Cl)c12 | > 100 µM | > 100 µM | > 100 | > 100 µM | > 100 µM | – | – | – | – | – | – | – | – | – | – |
| CCN(CC)CCC1CC/C(=C\c2ccc(OC)cc2)C1=O (centres undefined) | > 100 µM | > 100 µM | > 100 | > 100 µM | > 100 µM | – | – | – | – | – | – | – | – | – | – |
| CCOc1ccccc1NC(=O)/C=C1\NC(=O)CS1 | > 100 µM | > 100 µM | > 100 | > 100 µM | > 100 µM | – | – | – | – | – | – | – | – | – | – |
| Cc1cc2c(CC(=O)O)[nH]nc2c(C(=O)O)c1C | > 100 µM | – | > 100 | > 100 µM | > 100 µM | – | – | – | – | – | – | – | – | – | – |
| C[CH2][Sn]1([CH2]C)[O]C(=O)[O][Sn]([CH2]C)([CH2]C)[O]1 | > 57.8 µM | 26.7 µM | 31.2 | 21.7 µM | 37.9 µM | 25.6 µM | 17.2 µM | – | – | – | – | 12.6 µM | 8.78 | 18.5 | – |
| Cc1cc2nc3c(=O)n(C)c(=O)nc-3n(-c3ccc(Cl)cc3)c2cc1C | 42.1 µM | 13.7 µM | 19.9 | 27.5 µM | 5.74 µM | – | – | – | – | – | – | – | – | – | – |
| NC(N)=N/N=C(/c1nc2ccc([N+](=O)[O-])cc2[nH]c1=O)C(O)c1ccco1 (centres undefined) | > 100 µM | > 100 µM | > 100 | > 100 µM | > 100 µM | – | – | – | – | – | – | – | – | – | – |
| COc1cc(C2c3cc4c(cc3[C@@H](Nc3ccc(C(=O)O)cc3)C3COC(=O)[C@H]23)OCO4)cc(OC)c1O (some centres undefined) | 54.9 µM and > 17.5 µM | 47.8 µM and > 17.5 µM | > 100 | 39.8 µM and > 17.5 µM | 49.6 µM and > 17.5 µM | 17.2 µM and 6.86 µM | 16.8 µM and 5.25 µM | – | – | – | – | 13.9 µM and 5.44 µM | – | – | – |
| CCOC(=O)CCC(=O)C1c2cccc(O)c2C(=O)c2c(O)cccc21 | 3.21 µM | 1.65 µM | 3.33 | – | 2.29 µM | – | – | – | – | – | – | – | – | – | – |
| CN1CCN(CCSC2Cc3cc(Cl)ccc3Sc3ccccc32)CC1 (centres undefined) | 10.4 µM | 11.2 µM | 22.6 | 7.34 µM | 4.16 µM | – | – | – | – | – | – | – | – | – | – |
| NC(=O)c1c[se]c(C2OC(CO)C(O)C2O)n1 (centres undefined) | > 100 µM | > 100 µM | > 100 | > 100 µM | > 100 µM | – | – | > 100 | > 100 | > 100 | > 100 | – | – | – | > 100 |
